We go through 1 compound from US6399645B1, “Chemoprevention and treatment of cervical or vaginal neoplasia” (priority 2000, dated 2002).

One assay relates to estradiol metabolism. Put plainly: Urinary 2-hydroxyestrone to 16-alpha-hydroxyestrone ratio by ELISA in trial patients. It is filed as in vivo, human. As for the experimental part: Clean catch urine specimens were obtained from each patient at the initial visit and again at their 4-week visit. 2-hydroxyestrone to 16-alpha-hydrosytestrone ratios were assessed in each urine sample. Ascorbic acid was added to the urine specimens to aid in preservation for accurate analysis. ELISA assays were performed to assess the quantity of 2-hydroxyestrone and 16-alpha-hydroxyestrone in each urine sample, and were reported in ng/ml.

Assay [1] deals with cervical intraepithelial neoplasia (CIN). Nature of the assay: Placebo-controlled trial of oral indole-3-carbinol in patients with histologically confirmed CIN, 12 weeks. It is filed as in vivo, human. Conditions: for patients with complete regression based on 12-week biopsy: placebo 0 of 10; for mean grade change of CIN: placebo 1.22. As for the experimental part: Thirty subjects with histologically confirmed CIN were enrolled. Eligibility requirements were as follows: adequate colposcopy, negative ECC, no suspicion of invasion, non-pregnant, and […]. Evaluating colposcopists and patients were blinded to the treatment. All residents and staff involved in the study were instructed regarding the protocol. The patients were randomized to placebo, 200 mg/day, or 400-mg/day treatment of indole-3-carbinol administered orally for 12 weeks. Randomization was performed by successively assigning patients from a computer-generated randomization table. […] All patients underwent colposcopy at the initial visit as well as at their 4-week, 8-week, and 12-week visit. Photodocumentation of each colposcopic examination was obtained. At the end of the trial, each patient was reexamined, and if the patient had persistent CIN on 12-week biopsy, or if the colposcopic impression was persistent CIN, they underwent LEEP of the transformation zone. The dysplasia was classified by the pathologists in the usual manner and defined as follows: mild dysplasia meaning the presence of immature (dysplastic) cells present in the lower third of the squamous mucosa, moderate dysplasia in the lower two thirds, severe dysplasia the lower three fourths of the thickness of the mucosa and carcinoma in situ (“CIS”) full thickness immaturity. The cases were originally diagnosed by a sign out pathologist. The diagnosis of all cases was verified by the same pathologist for uniformity. In all cases, the pathologist was in agreement with the pathologist that had signed out the case. HPV status was assessed in all patients by Hybrid capture assay tests ([…] Diagnostics; Beltsville, MD) for low-risk (HPV types 6, 11, 42, 43, 44) and high-risk (HPV types 16, 18, 31, 33, 35, 45, 51, 52, 56). If the Hybrid capture assay was negative; a follow-up polymerase chain reaction (PCR) analysis was performed using consensus primers shown below for the L-1 region of HPV to confirm HPV positivity. The PCR amplification conditions were optimized using DNA isolated from paraffin embedded control HPV positive cervical cancer specimens prior to analysis of the study patient'samples.

For assay [2], the system named is HPV-induced benign tumors of laryngeal tissue. Conditions: mouse model; cited from earlier work.
The subject of a further assay is mammary carcinogenesis. Conditions: rat model; cited from earlier work.

For the compound `OCc1c[nH]c2ccccc12` [I3C, 1H-indole-3-methanol], the “change of urinary 2-hydroxyestrone to 16-alpha-hydroxyestrone ratio before and after therapy” value in the assay with estradiol metabolism (200 mg/day and 400 mg/day groups, initiation vs 4 weeks, placebo showed a decrease) was “general trend in increase in the ratios”. The “physiologic effect of the drug” value in the assay with estradiol metabolism (conclusion of the placebo-controlled trial) was “seen in a dose-dependent fashion”. Further, the “relative risk (RR), protective effect” value in assay [1] (200 mg/day group vs placebo, 95% CI 0.25 to 0.99, p=0.023) came to 0.50; in assay [1] (400 mg/day group vs placebo, 95% CI 0.31 to 0.99, p=0.032), 0.55. Moreover, the “patients with complete regression based on 12-week biopsy” value in assay [1] (200 mg/day orally for 12 weeks, 4 of 8 patients) turned out to be 50.0%; in assay [1] (400 mg/day orally for 12 weeks, 4 of 9 patients), 44.4%. Besides, the “mean grade change of CIN” value is 1.38 in assay [1] (200 mg/day orally for 12 weeks) and 1.78 in assay [1] (400 mg/day orally for 12 weeks). For the same compound, the “patients with complete regression of CIN” value in assay [1] (12 weeks of daily oral administration, summary statement) was “Roughly half”. The “correlation of HPV presence with response” value in assay [1] (HPV status by Hybrid capture assay / PCR) is reported as “presence of HPV does not correlate with response”. For the same compound, the “dose response of mean grade of CIN regression” value in assay [1] (placebo, 200 mg/day and 400 mg/day groups) is given as “linear dose response relationship”. Moreover, the “growth of HPV-induced benign tumors of laryngeal tissue” value in assay [2] was “inhibits growth”. In addition, the “inhibition of mammary carcinogenesis” value in the assay on mammary carcinogenesis was “effective in inhibiting mammary carcinogenesis”.
